# Read-outs that look alike come from different tables or passages of the source.
# Experiments:
# [1] = test system: Oxa-29 class D beta-lactamase; assay: BLAC2 method, nitrocefin (CPR) rate with Oxa-29; assay type: biochemical; conditions: for linear regression coefficient a (Y=aX+b), Oxa-29 / linear regression coefficient b (Y=aX+b), Oxa-29: BLAC2, X in mg/L
# Method: (§1) The dilution buffer for the enzymes, CPR, standards and samples was 50 mM PBS buffer, pH 7.0.
# (§2) The stock solution of CPR was 200 μM. Standards solution of ampicillin and cefuroxime were prepared at 100, 75, 50, 30, 15, 5, 1 and 0 mg/L.
# In the method 2 (BLAC2), 99 μl of sample, 99 μl of CPR and 22 μl of enzyme Oxa-29 were mixed. The reaction kinetics was determined by measuring the absorbance at 482 nm as a function of time. Enzyme activity v0 max was adjusted at +/−0.2 ΔAbs482/min.
# [2] = target: P99 class C beta-lactamase (Enterobacter cloacae, UniProt P05364); assay: BLAC1 method, nitrocefin (CPR) rate with P99 (Example 7); assay type: biochemical; conditions: for linear regression coefficient a (Y=aX+b), P99 / linear regression coefficient b (Y=aX+b), P99: BLAC1, X in mg/L
# Chain of P99 class C beta-lactamase (P05364 21-381): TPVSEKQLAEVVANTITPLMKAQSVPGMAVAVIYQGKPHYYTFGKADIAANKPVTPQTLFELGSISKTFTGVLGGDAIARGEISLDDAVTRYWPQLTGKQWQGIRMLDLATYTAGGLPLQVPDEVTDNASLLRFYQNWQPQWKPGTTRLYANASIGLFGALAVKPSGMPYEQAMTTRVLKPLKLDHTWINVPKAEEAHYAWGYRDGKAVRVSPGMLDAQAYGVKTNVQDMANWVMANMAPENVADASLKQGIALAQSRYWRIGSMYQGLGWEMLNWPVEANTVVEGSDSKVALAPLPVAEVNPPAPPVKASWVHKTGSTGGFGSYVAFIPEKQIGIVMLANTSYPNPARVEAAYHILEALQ
# Method: as §1, §2
# In the method 1 (BLAC1), 10 μl of 50-fold diluted sample, 100 μl of CPR and 100 μl of enzyme P99 were mixed. The reaction kinetics was determined by measuring the absorbance at 482 nm as a function of time. Enzyme activity v0 max was adjusted at +/−0.33 ΔAbs482/min.
# [3] = target: class A beta-lactamase (penicillinase) TEM-1 (Escherichia coli, UniProt P62593); assay: BLAC2 method, nitrocefin (CPR) rate with Tem-1; assay type: biochemical; conditions: even at 100 mg/L, fixed CPR
# Chain of class A beta-lactamase (penicillinase) TEM-1 (P62593 24-286 limits assumed): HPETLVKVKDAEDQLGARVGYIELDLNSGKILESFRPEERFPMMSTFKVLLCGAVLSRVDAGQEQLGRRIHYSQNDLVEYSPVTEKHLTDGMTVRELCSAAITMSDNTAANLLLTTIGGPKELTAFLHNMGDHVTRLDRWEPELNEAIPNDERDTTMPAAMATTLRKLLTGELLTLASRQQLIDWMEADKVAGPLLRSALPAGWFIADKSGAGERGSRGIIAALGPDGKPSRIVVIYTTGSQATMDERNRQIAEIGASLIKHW
# Method: In order to determine the concentration of ampicillin in a solution, two beta-lactamases were compared, in particular the class A beta-lactamase (penicillinase) TEM-1 (UniProt: C514X2_ECOLX) and the class C beta-lactamase of Enterobacter cloacae P99 described in Example 1.
# The dilution buffer for the enzymes, nitrocefin (CPR), standards and samples was 50 mM PBS buffer, pH 7. The stock solution of CPR was 200 μM. The standard solution of ampicillin was prepared at concentrations of 100, 75, 50, 30, 15, 5, 1 and 0 mg/L.
# In the method 2 (BLAC2), 99 μl of sample, 99 μl of CPR and 22 μl of enzyme, i.e. Tem-1 or P99, were mixed. The enzyme activity (v0 max) was adjusted at +/−0.2 ΔAbs482/min.
# [4] = target: class C beta-lactamase of Enterobacter cloacae P99 (Enterobacter cloacae, UniProt P05364); conditions: cited from earlier work
# Chain of class C beta-lactamase of Enterobacter cloacae P99 (P05364 21-381): as the sequence (P05364 21-381) above
# [5] = test system: class C beta-lactamase of Enterobacter cloacae 908R; conditions: cited from earlier work
# [6] = target: class C beta-lactamase of Citrobacter freundii (Citrobacter freundii, UniProt P05193); conditions: cited from earlier work
# Chain of class C beta-lactamase of Citrobacter freundii (P05193 21-381): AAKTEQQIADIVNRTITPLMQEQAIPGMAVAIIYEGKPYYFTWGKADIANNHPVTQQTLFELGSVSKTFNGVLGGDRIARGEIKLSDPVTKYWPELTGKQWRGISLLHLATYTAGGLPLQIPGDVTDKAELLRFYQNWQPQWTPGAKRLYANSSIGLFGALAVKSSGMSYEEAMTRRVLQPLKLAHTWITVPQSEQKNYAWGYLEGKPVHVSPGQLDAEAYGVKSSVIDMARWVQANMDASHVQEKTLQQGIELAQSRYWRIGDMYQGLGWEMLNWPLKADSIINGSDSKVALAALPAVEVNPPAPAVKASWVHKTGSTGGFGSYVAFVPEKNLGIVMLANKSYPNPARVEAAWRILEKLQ
# [7] = target: class C beta-lactamase of Escherichia coli K12 (Escherichia coli, UniProt P00811); conditions: cited from earlier work
# Chain of class C beta-lactamase of Escherichia coli K12 (P00811 20-377): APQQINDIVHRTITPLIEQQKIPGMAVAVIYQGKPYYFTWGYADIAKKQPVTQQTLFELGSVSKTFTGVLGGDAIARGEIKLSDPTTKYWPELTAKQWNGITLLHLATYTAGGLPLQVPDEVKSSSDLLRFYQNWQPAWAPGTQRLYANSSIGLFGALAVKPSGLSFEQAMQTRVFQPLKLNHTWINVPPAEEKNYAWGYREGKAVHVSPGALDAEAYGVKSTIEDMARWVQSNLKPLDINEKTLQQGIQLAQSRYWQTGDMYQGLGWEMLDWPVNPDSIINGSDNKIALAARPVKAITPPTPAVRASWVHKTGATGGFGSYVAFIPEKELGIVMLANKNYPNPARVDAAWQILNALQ
# [8] = target: class C beta-lactamase of Serratia marcescens (Serratia marcescens, UniProt P18539); conditions: Serratia marcescens, cited from earlier work; for Km: read-out: Km
# Chain of class C beta-lactamase of Serratia marcescens (P18539 22-376): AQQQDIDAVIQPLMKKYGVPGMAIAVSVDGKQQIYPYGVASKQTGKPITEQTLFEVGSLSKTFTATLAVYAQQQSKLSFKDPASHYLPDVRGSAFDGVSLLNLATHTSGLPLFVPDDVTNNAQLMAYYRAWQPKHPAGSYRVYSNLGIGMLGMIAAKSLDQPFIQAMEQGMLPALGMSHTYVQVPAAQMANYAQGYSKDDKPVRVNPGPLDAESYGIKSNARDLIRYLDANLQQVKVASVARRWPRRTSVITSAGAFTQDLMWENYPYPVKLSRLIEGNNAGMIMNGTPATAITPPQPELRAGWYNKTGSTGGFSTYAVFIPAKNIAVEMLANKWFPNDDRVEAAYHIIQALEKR
# [9] = target: class C beta-lactamase of Pseudomonas aeruginosa (Pseudomonas aeruginosa, UniProt P24735); conditions: Pseudomonas aeruginosa, cited from earlier work; for Km: read-out: Km
# Chain of class C beta-lactamase of Pseudomonas aeruginosa (P24735 27-397): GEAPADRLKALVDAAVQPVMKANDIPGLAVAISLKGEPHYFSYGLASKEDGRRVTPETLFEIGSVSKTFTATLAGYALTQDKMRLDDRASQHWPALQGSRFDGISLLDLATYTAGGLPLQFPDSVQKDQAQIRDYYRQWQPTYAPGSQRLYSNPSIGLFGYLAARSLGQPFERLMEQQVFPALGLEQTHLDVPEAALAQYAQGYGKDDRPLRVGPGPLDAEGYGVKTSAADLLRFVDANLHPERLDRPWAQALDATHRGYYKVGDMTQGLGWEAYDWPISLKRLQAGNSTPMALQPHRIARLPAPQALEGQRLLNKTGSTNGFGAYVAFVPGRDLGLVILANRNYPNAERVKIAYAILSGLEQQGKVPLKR
# P99A266C [10] = target: T1, P99A266C (Enterobacter cloacae, UniProt P05364, A266C); assay: Reaction of immobilized enzyme on ATR element with chromogenic substrate CENTA; assay type: biochemical, Enterobacter cloacae P99
# T1 construct: made in house; host or cells: E. coli BL21(DE3), pET28 vector
# T1 sequence (P05364 other isoform, or with tags, fused parts or gaps A266C): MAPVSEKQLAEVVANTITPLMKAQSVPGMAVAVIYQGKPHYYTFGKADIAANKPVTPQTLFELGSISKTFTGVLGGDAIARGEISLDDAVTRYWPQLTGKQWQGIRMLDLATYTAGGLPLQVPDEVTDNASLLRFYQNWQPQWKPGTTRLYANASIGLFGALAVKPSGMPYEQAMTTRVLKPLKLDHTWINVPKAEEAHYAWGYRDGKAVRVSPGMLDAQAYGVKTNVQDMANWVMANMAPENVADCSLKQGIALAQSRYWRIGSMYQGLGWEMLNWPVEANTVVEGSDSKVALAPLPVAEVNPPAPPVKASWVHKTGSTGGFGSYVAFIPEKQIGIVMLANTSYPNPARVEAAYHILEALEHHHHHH
# Method: On the N-maleimide functionalized ATR element, the class C beta-lactamase P99A266C prepared as in example 2 was bound.
# P99A266C binding onto the functionalized crystal was obtained by depositing 10 μL of a solution (phosphate buffer 50 mM, pH 7) of P99A266C enzyme (30 μg/ml) during 1 h, then rinsing with buffer during 15 min at a rate of 35 μL/min.
# The immobilized enzyme was able to react rapidly with its chromogenic substrate CENTA: this was controlled by the appearance of the […] coloration.
# P99A266C [11] = target: T1, P99A266C; assay: FTIR-ATR biosensor binding; parameters: species or system Enterobacter cloacae P99; conditions: 50-100 μg/mL, 10-20 min, 35 μl/min
# Method: A solution of the beta-lactam antibiotic cefuroxim; obtained from Sigma-Aldrich in milliQ water at a concentration of 50-100 μg/mL was passed over the biosensor constructed in Example 3. The solution was passed over the crystal during 10-20 min at a rate of 35 μl/min.
# FTIR-ATR spectra were recorded and cefuroxim binding was monitored by following the appearance of its characteristic signal. By subtracting the spectrum of the P99A266C, the spectrum of the acyl-enzyme complex appeared clearly. The intensity of the peak at 1730 cm^−1 allowed the quantitative measurement of cefuroxim binding. […] The structure of the acyl-enzyme complex is represented below.
compound,measurement,setting,value
CC1(C)S[C@@H]2[C@H](NC(=O)[C@H](N)c3ccccc3)C(=O)N2[C@H]1C(=O)O [Ampicillin],rate of Oxa-29 Class D beta-lactamase,"[1]; BLAC2, 1 mg/L",0.1831 ΔAbs482/min
same,"residual rate minus 1, (vomax/v0)−1, Oxa-29","[1]; BLAC2, 1 mg/L",0.048
same,rate of Oxa-29 Class D beta-lactamase,"[1]; BLAC2, 5 mg/L",0.1680 ΔAbs482/min
same,"residual rate minus 1, (vomax/v0)−1, Oxa-29","[1]; BLAC2, 5 mg/L",0.142
same,rate of Oxa-29 Class D beta-lactamase,"[1]; BLAC2, 15 mg/L",0.1532 ΔAbs482/min
same,"residual rate minus 1, (vomax/v0)−1, Oxa-29","[1]; BLAC2, 15 mg/L",0.253
same,rate of Oxa-29 Class D beta-lactamase,"[1]; BLAC2, 30 mg/L",0.1292 ΔAbs482/min
same,"residual rate minus 1, (vomax/v0)−1, Oxa-29","[1]; BLAC2, 30 mg/L",0.485
same,rate of Oxa-29 Class D beta-lactamase,"[1]; BLAC2, 50 mg/L",0.1056 ΔAbs482/min
same,"residual rate minus 1, (vomax/v0)−1, Oxa-29","[1]; BLAC2, 50 mg/L",0.817
same,rate of Oxa-29 Class D beta-lactamase,"[1]; BLAC2, 75 mg/L",0.0869 ΔAbs482/min
same,"residual rate minus 1, (vomax/v0)−1, Oxa-29","[1]; BLAC2, 75 mg/L",1.208
same,rate of Oxa-29 Class D beta-lactamase,"[1]; BLAC2, 100 mg/L",0.0730 ΔAbs482/min
same,"residual rate minus 1, (vomax/v0)−1, Oxa-29","[1]; BLAC2, 100 mg/L",1.629
same,"linear regression coefficient a (Y=aX+b), Oxa-29",[1],0.0159
same,"linear regression coefficient b (Y=aX+b), Oxa-29",[1],0.0002
same,rate of P99 class C beta-lactamase,"[2]; BLAC1, 1 mg/L",0.3221 ΔAbs482/min
same,"residual rate minus 1, (vomax/v0)−1, P99","[2]; BLAC1, 1 mg/L",0.004
same,rate of P99 class C beta-lactamase,"[2]; BLAC1, 5 mg/L",0.3207 ΔAbs482/min
same,"residual rate minus 1, (vomax/v0)−1, P99","[2]; BLAC1, 5 mg/L",0.008
same,rate of P99 class C beta-lactamase,"[2]; BLAC1, 15 mg/L",0.3164 ΔAbs482/min
same,"residual rate minus 1, (vomax/v0)−1, P99","[2]; BLAC1, 15 mg/L",0.022
same,rate of P99 class C beta-lactamase,"[2]; BLAC1, 30 mg/L",0.3114 ΔAbs482/min
same,"residual rate minus 1, (vomax/v0)−1, P99","[2]; BLAC1, 30 mg/L",0.038
same,rate of P99 class C beta-lactamase,"[2]; BLAC1, 50 mg/L",0.3008 ΔAbs482/min
same,"residual rate minus 1, (vomax/v0)−1, P99","[2]; BLAC1, 50 mg/L",0.075
same,rate of P99 class C beta-lactamase,"[2]; BLAC1, 75 mg/L",0.2909 ΔAbs482/min
same,"residual rate minus 1, (vomax/v0)−1, P99","[2]; BLAC1, 75 mg/L",0.111
same,rate of P99 class C beta-lactamase,"[2]; BLAC1, 100 mg/L",0.2806 ΔAbs482/min
same,"residual rate minus 1, (vomax/v0)−1, P99","[2]; BLAC1, 100 mg/L",0.152
same,"linear regression coefficient a (Y=aX+b), P99",[2],0.0015
same,"linear regression coefficient b (Y=aX+b), P99",[2],0.0000
same,inhibition of Tem-1 catalyzed reaction,[3],no inhibition of the reaction was observed
same,Km,[4],0.4 µM
same,kcat,[4],0.74 s⁻¹
same,Km,[5],0.4 µM
same,kcat,[5],0.53 s⁻¹
same,Km,[6],0.2 µM
same,kcat,[6],6.5 s⁻¹
same,Km,[7],3.5 µM
same,kcat,[7],4.2 s⁻¹
same,kcat,[8],0.46 s⁻¹
same,Km,[8],0.01 µM
same,kcat,[9],4.4 s⁻¹
same,Km,[9],0.5 µM
CO/N=C(\C(=O)N[C@@H]1C(=O)N2C(C(=O)O)=C(COC(N)=O)CS[C@H]12)c1ccco1 [Cefuroxime],rate of Oxa-29 Class D beta-lactamase,"[1]; BLAC2, 1 mg/L",0.2079 ΔAbs482/min
same,"residual rate minus 1, (vomax/v0)−1, Oxa-29","[1]; BLAC2, 1 mg/L",0.072
same,rate of Oxa-29 Class D beta-lactamase,"[1]; BLAC2, 5 mg/L",0.2025 ΔAbs482/min
same,"residual rate minus 1, (vomax/v0)−1, Oxa-29","[1]; BLAC2, 5 mg/L",0.100
same,rate of Oxa-29 Class D beta-lactamase,"[1]; BLAC2, 15 mg/L",0.2011 ΔAbs482/min
same,"residual rate minus 1, (vomax/v0)−1, Oxa-29","[1]; BLAC2, 15 mg/L",0.108
same,rate of Oxa-29 Class D beta-lactamase,"[1]; BLAC2, 30 mg/L",0.1992 ΔAbs482/min
same,"residual rate minus 1, (vomax/v0)−1, Oxa-29","[1]; BLAC2, 30 mg/L",0.118
same,rate of Oxa-29 Class D beta-lactamase,"[1]; BLAC2, 50 mg/L",0.1897 ΔAbs482/min
same,"residual rate minus 1, (vomax/v0)−1, Oxa-29","[1]; BLAC2, 50 mg/L",0.174
same,rate of Oxa-29 Class D beta-lactamase,"[1]; BLAC2, 75 mg/L",0.1796 ΔAbs482/min
same,"residual rate minus 1, (vomax/v0)−1, Oxa-29","[1]; BLAC2, 75 mg/L",0.241
same,rate of Oxa-29 Class D beta-lactamase,"[1]; BLAC2, 100 mg/L",0.1749 ΔAbs482/min
same,"residual rate minus 1, (vomax/v0)−1, Oxa-29","[1]; BLAC2, 100 mg/L",0.274
same,"linear regression coefficient a (Y=aX+b), Oxa-29",[1],0.0023
same,"linear regression coefficient b (Y=aX+b), Oxa-29",[1],0.0003
same,rate of P99 class C beta-lactamase,"[2]; BLAC1, 1 mg/L",0.3247 ΔAbs482/min
same,"residual rate minus 1, (vomax/v0)−1, P99","[2]; BLAC1, 1 mg/L",0.048
same,rate of P99 class C beta-lactamase,"[2]; BLAC1, 5 mg/L",0.2763 ΔAbs482/min
same,"residual rate minus 1, (vomax/v0)−1, P99","[2]; BLAC1, 5 mg/L",0.232
same,rate of P99 class C beta-lactamase,"[2]; BLAC1, 15 mg/L",0.1938 ΔAbs482/min
same,"residual rate minus 1, (vomax/v0)−1, P99","[2]; BLAC1, 15 mg/L",0.756
same,rate of P99 class C beta-lactamase,"[2]; BLAC1, 30 mg/L",0.1417 ΔAbs482/min
same,"residual rate minus 1, (vomax/v0)−1, P99","[2]; BLAC1, 30 mg/L",1.402
same,rate of P99 class C beta-lactamase,"[2]; BLAC1, 50 mg/L",0.0957 ΔAbs482/min
same,"residual rate minus 1, (vomax/v0)−1, P99","[2]; BLAC1, 50 mg/L",2.556
same,rate of P99 class C beta-lactamase,"[2]; BLAC1, 75 mg/L",0.0736 ΔAbs482/min
same,"residual rate minus 1, (vomax/v0)−1, P99","[2]; BLAC1, 75 mg/L",3.624
same,rate of P99 class C beta-lactamase,"[2]; BLAC1, 100 mg/L",0.0539 ΔAbs482/min
same,"residual rate minus 1, (vomax/v0)−1, P99","[2]; BLAC1, 100 mg/L",5.314
same,"linear regression coefficient a (Y=aX+b), P99",[2],0.0518
same,"linear regression coefficient b (Y=aX+b), P99",[2],0.0013
same,reaction of immobilized enzyme with chromogenic substrate when antibiotic fixed,P99A266C [10],did not occur
same,binding to P99A266C biosensor (FTIR-ATR),P99A266C [11],fixed to P99A266C (acyl-enzyme complex)
same,kcat,[4],0.05 s⁻¹
same,Km,[4]; read-out: Km,0.016 µM
same,kcat,[5],0.05 s⁻¹
same,kcat,[6],0.04 s⁻¹
same,Km,[6]; read-out: Km,0.02 µM
same,kcat,[7],0.15 s⁻¹
same,Km,[7]; read-out: Km,0.15 µM
same,kcat,[8],0.8 s⁻¹
same,Km,[8],0.6 µM
same,kcat,[9],0.05 s⁻¹
same,Km,[9],0.02 µM

# Source: patent publication US9689021B2, “Method for measuring beta-lactam antibiotics” (priority 2011, dated 2017)
